# Laboratory results as given in paper PMC11620517, “Novel hydrazone compounds with broad-spectrum antiplasmodial activity and synergistic interactions with antimalarial drugs” (Antimicrobial Agents and Chemotherapy, 2024).
# “And” between values parts separate entries of the source, which are not always exact repeats. Equal values may be shown once. Read-outs that look alike come from different tables or passages of the source.
# Experiments:
# human GST = target: T1, human GST (Homo sapiens, UniProt P08263); assay: GST inhibition assay (CDNB); type: biochemical; conditions: 6-point 1–50 µM
# T1 construct: The open reading frames encoding PfGST, PbGST, and hGST were gene-synthesized; TEV cleavage site (C); Avitag (C); purchased InterRayBio, LLC; host or cells: E. coli BL21 (DE3)
# T1 sequence (P08263 1-222): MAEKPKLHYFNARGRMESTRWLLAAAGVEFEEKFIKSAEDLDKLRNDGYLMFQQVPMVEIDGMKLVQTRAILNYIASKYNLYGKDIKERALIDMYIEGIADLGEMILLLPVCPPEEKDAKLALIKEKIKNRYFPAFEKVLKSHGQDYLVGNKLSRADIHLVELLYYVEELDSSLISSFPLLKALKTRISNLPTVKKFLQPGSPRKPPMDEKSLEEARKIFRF
# Procedure: (§1) Enzymatic activities of recombinant GSTs were determined spectrophotometrically using the chromogenic substrate 1-chloro-2,4-dinitrobenzene (CDNB). Recombinant GST (0.35 mg/mL) was mixed with 1 mM CDNB in 100 mM HEPES. Stock solutions (10 mM) of the CB compounds and hemin were prepared in 100% dimethyl sulfoxide (DMSO) and then diluted at 0.5% DMSO ([14]). Each inhibitor has six concentrations ranging from 1 to 50 µM. The reaction was initiated with 1 mM glutathione (GSH) after 15 minutes. Absorbance change at 340 nm was measured for 1 hour. The slope was converted to micromole per minute using Beer’s equation and the extinction coefficient for the product S-(2,4-dinitrophenyl)glutathione (ε340 nm = 9.6 mM^–1 cm^–1) ([14]). The assay was validated using human placenta GST (#G8642) as a positive control.
# [1] = target: T2, recombinant P. falciparum GST (Plasmodium falciparum, UniProt Q8ILQ7); assay: GST inhibition assay (CDNB); type: biochemical; conditions: 6-point 1–50 µM
# T2 construct: The open reading frames encoding PfGST, PbGST, and hGST were gene-synthesized; TEV cleavage site (C); Avitag (C); purchased InterRayBio, LLC; host or cells: E. coli BL21 (DE3)
# T2 sequence (Q8ILQ7 1-211): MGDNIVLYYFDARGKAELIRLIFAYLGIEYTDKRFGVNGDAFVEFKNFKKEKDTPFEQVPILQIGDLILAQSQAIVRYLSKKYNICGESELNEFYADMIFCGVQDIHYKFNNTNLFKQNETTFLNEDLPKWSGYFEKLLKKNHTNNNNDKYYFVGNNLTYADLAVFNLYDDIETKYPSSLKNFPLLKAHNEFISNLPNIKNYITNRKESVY
# Procedure: as §1
# [2] = test system: recombinant P. berghei GST; assay: GST inhibition assay (CDNB); type: biochemical, Plasmodium berghei; conditions: 6-point 1–50 µM
# Procedure: as §1
# [3] = test system: P. cynomolgi hypnozoites and hepatic schizonts; assay: P. cynomolgi liver-stage inhibition assay; type: cell-based, Plasmodium cynomolgi; conditions: Plasmodium cynomolgi, prophylactic drug treatment mode
# Procedure: (§2) Primary primate hepatocytes were seeded in 384-well plates and used within 2–4 days ([56]). P. cynomolgi B strain parasites were inoculated and developed into hypnozoites and schizonts. CB compounds were tested in 8-point, threefold serial dilutions (100 µM to […]) for both prophylactic (4 days starting with sporozoite addition) and radical cure (4 days starting day 4 post-inoculation) modalities ([56][–][60]). The Operetta CLS imaging system and Harmony Software 4.9 (Perkin Elmer, Waltham, MA, USA) analyzed the plates, and the percentage of inhibition (PI) was calculated in Python using equation (1), where parasitic quantities (hypnozoite and schizont counts) were normalized to the negative control ([57]). Each plate included negative (DMSO) and positive (KDU691, maduramicin, tafenoquine) controls ([58]). IC50 values were determined using an 8-point, threefold dilution format and a Python-adapted grid algorithm for fitting PI to a four-parameter logistic function ([61]).
# PI = 100 ∗(1−(xy/Meanneg))
# [4] = test system: primary primate hepatocytes; assay: hepatocyte toxicity in the P. cynomolgi liver-stage assay; type: cell-based
# Procedure: as §2
# [5] = test system: P. falciparum oocyst formation in Anopheles stephensi mosquitoes; assay: P. falciparum oocyst inhibition assay (SMFA); type: in vivo, Plasmodium falciparum; conditions: for Mean oocyst # excluding zeros (Range): P. falciparum midgut infection in An. stephensi mosquitoes; for Median (oocysts) / Median I % / Prevalence % / Prevalence I %: pooled from two representative experiments; for oocyst formation inhibition: 1 to 10 µM, midguts dissected 8 days after feeding
# Procedure: As previously described, P. falciparum infections were performed using SMFA with NF54 gametocyte cultures diluted to 0.3% stage V gametocytemia ([62]). Infected blood (O+ human 45% hematocrit in serum) was offered to mosquitoes for 30 minutes, and engorged mosquitoes were maintained on a 10% corn syrup solution supplemented by four concentrations of CB compounds (1, 2.5, 5, and 10 µM) at […] ([63]), with DMSO serving as a control. Eight days post-infection, mosquito midguts were dissected and stained with 0.2% mercurochrome for 30 minutes, and oocysts were quantified under a light microscope ([63]).
# in vitro = conditions: human, HepG2 cells
# [6] = 1 μM compound, infection prevalence in mosquitoes
# [7] = 1 μM, single experiments, read-out: % inhibition (mean)
# [8] = 2.5 μM compound, infection prevalence in mosquitoes
# [9] = 5 μM compound, infection prevalence in mosquitoes
# [10] = 5 μM, single experiments, read-out: % inhibition (mean)
# [11] = 10 μM compound, infection prevalence in mosquitoes
# [12] = 10 μM compound, oocyst number vs DMSO control, read-out: % inhibition (mean)
# [13] = 10 μM compound, oocyst number vs DMSO control, read-out: % inhibition (median)
# [14] = 10 μM compound, vs DMSO control, read-out: % inhibition (prevalence)
smiles,measurement,setting,value
O=C(NN=Cc1ccccc1O)c1cc(-c2ccccc2)nc2ccccc12 [CB-53],GST inhibition,human GST,did not inhibit
same,GST inhibition,[1],did not inhibit
same,GST inhibition,[2],did not inhibit
same,IC50,[3]; read-out: Hypnozoite IC50,> 10 µM
same,IC50,[3]; read-out: Schizont IC50,> 10 µM
same,IC50,[3]; read-out: Total parasite IC50,> 10 µM
same,Toxicity,[4],>10 µM
same,Median oocyst #,[5]; 1 μM compound,1
same,Mean oocyst # excluding zeros (Range),[5]; 1 μM compound,36 (0-125)
same,Prevalence,[5]; [6],59
same,inhibition at 1 µM,"[5]; 1 μM compound, oocyst number vs DMSO control, read-out: % inhibition (mean)",5%
same,inhibition at 1 µM,"[5]; 1 μM compound, oocyst number vs DMSO control, read-out: % inhibition (median)",83%
same,inhibition at 1 µM,"[5]; 1 μM compound, vs DMSO control, read-out: % inhibition (prevalence)",32%
same,Median (oocysts),[5]; 1 µM,1
same,Median I %,[5]; 1 µM,83%
same,Prevalence %,[5]; 1 µM,59%
same,Prevalence I %,[5]; 1 µM,32%
same,inhibition at 1 µM,[5]; [7],36%
same,Median oocyst #,[5]; 2.5 μM compound,1
same,Mean oocyst # excluding zeros (Range),[5]; 2.5 μM compound,29 (0-115)
same,Prevalence,[5]; [8],60
same,inhibition at 2.5 µM,"[5]; 2.5 μM compound, oocyst number vs DMSO control, read-out: % inhibition (mean)",22%
same,inhibition at 2.5 µM,"[5]; 2.5 μM compound, oocyst number vs DMSO control, read-out: % inhibition (median)",83%
same,inhibition at 2.5 µM,"[5]; 2.5 μM compound, vs DMSO control, read-out: % inhibition (prevalence)",31%
same,Median (oocysts),[5]; 2.5 µM,1
same,Median I %,[5]; 2.5 µM,83%
same,Prevalence %,[5]; 2.5 µM,60%
same,Prevalence I %,[5]; 2.5 µM,31%
same,Prevalence,"[5]; 2.5 μM, single experiments",67 and 91 and 47 and 70
same,inhibition at 2.5 µM,"[5]; 2.5 μM, single experiments, read-out: % inhibition (mean)",37%
same,Median oocyst #,[5]; 5 μM compound,0
same,Mean oocyst # excluding zeros (Range),[5]; 5 μM compound,26 (0-83)
same,Prevalence,[5]; [9],48
same,inhibition at 5 µM,"[5]; 5 μM compound, oocyst number vs DMSO control, read-out: % inhibition (mean)",44%
same,inhibition at 5 µM,"[5]; 5 μM compound, vs DMSO control, read-out: % inhibition (prevalence)",44%
same,Median (oocysts),[5]; 5 µM,0
same,Median I %,[5]; 5 µM,100%
same,Prevalence %,[5]; 5 µM,48%
same,Prevalence I %,[5]; 5 µM,44%
same,% inhibition (mean),"[5]; 5 μM, single experiments",23%
same,inhibition at 5 µM,[5]; [10],24%
same,Median oocyst #,[5]; 10 μM compound,1
same,Mean oocyst # excluding zeros (Range),[5]; 10 μM compound,28 (0-129)
same,Prevalence,[5]; [11],58
same,inhibition at 10 µM,[5]; [12],28%
same,inhibition at 10 µM,[5]; [13],83%
same,inhibition at 10 µM,[5]; [14],33%
same,Median (oocysts),[5]; 10 µM,1
same,Median I %,[5]; 10 µM,83%
same,Prevalence %,[5]; 10 µM,58%
same,Prevalence I %,[5]; 10 µM,33%
same,oocyst formation inhibition,[5],inhibit the development of oocysts
same,IC50 at 48 h,in vitro,> 20 µM
COc1cccc(/C=N/NC(=O)c2cc(-c3ccccc3)nc3ccccc23)c1O [CB-58],GST inhibition,human GST,did not inhibit
same,GST inhibition,[1],did not inhibit
same,GST inhibition,[2],did not inhibit
same,IC50,[3]; read-out: Hypnozoite IC50,> 10 µM
same,IC50,[3]; read-out: Schizont IC50,> 10 µM
same,IC50,[3]; read-out: Total parasite IC50,> 10 µM
same,Toxicity,[4],>10 µM
same,Median oocyst #,[5]; 1 μM compound,6
same,Mean oocyst # excluding zeros (Range),[5]; 1 μM compound,19 (0-95)
same,Prevalence,[5]; [6],76
same,Median (oocysts),[5]; 1 µM,6
same,Prevalence %,[5]; 1 µM,75%
same,% inhibition (prevalence),"[5]; 1 μM, single experiments",1%
same,Prevalence,"[5]; 1 μM, single experiments",69 and 82 and 83
same,inhibition at 1 µM,[5]; [7],5%
same,inhibition at 1 µM,"[5]; 1 μM, single experiments, read-out: % inhibition (median)",23%
same,Median oocyst #,[5]; 2.5 μM compound,7
same,Mean oocyst # excluding zeros (Range),[5]; 2.5 μM compound,26 (0-103)
same,Prevalence,[5]; [8],72
same,Median (oocysts),[5]; 2.5 µM,7
same,Prevalence %,[5]; 2.5 µM,72%
same,% inhibition (prevalence),"[5]; 2.5 μM, single experiments",1%
same,Prevalence,"[5]; 2.5 μM, single experiments",66 and 79 and 87
same,Median oocyst #,[5]; 5 μM compound,6
same,Mean oocyst # excluding zeros (Range),[5]; 5 μM compound,14 (0-70)
same,Prevalence,[5]; [9],87
same,Median (oocysts),[5]; 5 µM,6
same,Prevalence %,[5]; 5 µM,87%
same,Prevalence,"[5]; 5 μM, single experiments",96 and 83 and 69
same,inhibition at 5 µM,[5]; [10],10%
same,inhibition at 5 µM,"[5]; 5 μM, single experiments, read-out: % inhibition (median)",26%
same,Median oocyst #,[5]; 10 μM compound,3
same,Mean oocyst # excluding zeros (Range),[5]; 10 μM compound,17 (0-93)
same,Prevalence,[5]; [11],57
same,inhibition at 10 µM,[5]; [12],10%
same,inhibition at 10 µM,[5]; [13],50%
same,inhibition at 10 µM,[5]; [14],19%
same,Median (oocysts),[5]; 10 µM,3
same,Median I %,[5]; 10 µM,50%
same,Prevalence %,[5]; 10 µM,57%
same,Prevalence I %,[5]; 10 µM,19%
same,% inhibition (prevalence),"[5]; 10 μM, single experiments",15%
same,inhibition at 10 µM,"[5]; 10 μM, single experiments, read-out: % inhibition (mean)",30%
same,inhibition at 10 µM,"[5]; 10 μM, single experiments, read-out: % inhibition (prevalence)",30%
same,oocyst formation inhibition,[5],did not inhibit oocyst formation
same,IC50 at 48 h,in vitro,> 20 µM
